The text below walks through data of publication PMC11181328 (Journal of Medicinal Chemistry, 2024).

Counter-ions that a name gives are not always drawn. Like-named read-outs stand apart in the source and are kept apart here.

Data set [1] deals with T1, DOR (Homo sapiens, UniProt P41143).
T1 construct: expressed in transfected cells; membrane homogenate
Nature of the data set: [35S]-GTPγS functional assay, DOR. Particulars: hDOR-CHO membranes. Format: biochemical. (In general: GTPγS resists hydrolysis and so accumulates on activated G proteins.)

For data set [2], the target named is T2, KOR (Mus musculus, UniProt P33534).
T2 construct: expressed in transfected cells; membrane homogenate
In words: [35S]-GTPγS functional assay, KOR. Particulars: mKOR-CHO membranes. The data set is classed as biochemical.

Data set [3] deals with male Swiss Webster mice. Nature of the data set: Warm-water tail immersion assay, agonism (single dose screen and potency). Format: in vivo, mouse. Particulars: single dose 10 mg/kg s.c., 20 min.
Data set [4] has as its target T1, DOR. Nature of the data set: Competitive radioligand binding assay, DOR. Particulars: [3H]diprenorphine, hDOR-CHO membranes; read-out: radioligand binding affinity (Ki, nM) DOR.
Data set [5] concerns the target T3, MOR (Mus musculus, UniProt P42866). Particulars: percent of DAMGO; MOR functional activity first published; cited from earlier work.
Data set [6] concerns the target T3, MOR. Nature of the data set: Competitive radioligand binding assay, MOR. Further details: expressed in transfected cells; membrane homogenate. Particulars: [3H]naloxone, mMOR-CHO membranes.
The target of data set [7] is T2, KOR. Nature of the data set: Competitive radioligand binding assay, KOR. Particulars: [3H]diprenorphine, mKOR-CHO membranes.
In data set [8] the test system is male Swiss Webster mice. Nature of the data set: Warm-water tail immersion assay, time course study. Format: in vivo, mouse. Particulars: 0.1 mg/kg s.c.
The target of data set [9] is T1, DOR. Particulars: read-out: radioligand binding affinity (Ki, nM) DOR; [3H]diprenorphine; cited from earlier work.
Data set [10] deals with male and female Sprague–Dawley rats. Particulars: intravenous, FR5 schedule of reinforcement, 2 h sessions.
In data set [11] the test system is male Swiss Webster mice. In words: Warm-water tail immersion assay, receptor selectivity study. The data set is classed as in vivo, mouse.
Data set [12] concerns male Swiss Webster mice. In words: Locomotor activity assay. The data set is classed as in vivo, mouse. Particulars: s.c., 30 min session. As for the experimental part:
This hypolocomotion could result in false positives in assays of evoked antinociception such as WWTI.[115] Thus, a locomotor activity assay was utilized to assess this end point in accordance with previous studies.[28] In brief, the day prior to testing, mice were placed in the open field chamber for acclimation. On the test day, they were injected with compounds 21, 23, NLF, or vehicle and immediately placed back into the open field chamber. Photo beam breaks then recorded the mouse’s locomotion over a 30 min test period.
Six open field activity chambers (Med Associates, St. Albans, VT) were used in the locomotor activity study. Each chamber is located inside a sound-attenuating cubicle (Med Associates) and is equipped with a ventilation system. The interior of the chamber consists of a 27 × 27 cm plexiglass enclosure wired with photobeam cells and connected to a computer console that monitors the activity of the animal.
The day before the experiment, mice were acclimated to the activity chambers for a period of 30 min. On the day of the experiment, mice were administered vehicle or test compound s.c., placed into the activity chambers immediately and activity was monitored and recorded for a period of 30 min.
The primary dependent measures are total (1) distance traveled (cm), (2) ambulatory counts, (3) vertical counts, and (4) average speed (cm/s) within the 30 min session. Data are shown as mean ± SEM. Data were compared using one-way or two-way ANOVA as appropriate and a significant ANOVA was followed by a Dunnet’s post hoc test as appropriate. Statistical significance was defined as p < 0.05.

For data set [13], the system named is male Swiss Webster mice. Particulars: warm-water tail immersion; cited from earlier work.
Data set [14] concerns male Swiss Webster mice. Particulars: 0.1 mg/kg; cited from earlier work.
The conditions of data set [15]: same conditions; cited from earlier work.
Another data set has as its target hERG (Homo sapiens, UniProt Q12809). Particulars: read-out: hERG IC50; cited from earlier work. In general terms: The hERG channel carries a current that helps repolarise heart muscle cells.
In data set [16] the test system is male Swiss Webster mice. In words: Warm-water tail immersion assay, antagonism of morphine. The data set is classed as in vivo, mouse. Particulars: s.c. 5 min prior to morphine.

As a reminder, the EC50 is the concentration that produces a half-maximal response. Higher therefore signals a less potent agent. What is called Ki is the dissociation constant of the complex between target and ligand, obtained from inhibition or displacement. In general, IC50 refers to the point on the concentration scale where inhibition reaches its midpoint.

Turning to `Cl.O=C(CCc1ccco1)N[C@@H]1CC[C@@]2(O)[C@H]3Cc4ccc(O)c5c4[C@@]2(CCN3CC2CC2)[C@H]1O5` [Compound 16, 17-Cyclopropylmethyl-3,14β-dihydroxy-4,5α-epoxy-6β-[3′-(furan-2″-yl)propanamido]morphinan Hydrochloride], the figures for the EC50 on DOR [1] and on KOR [2] were 16.8 ± 2.96 nM and 1.62 ± 0.12 nM, respectively. Also, the “antinociception compared to the vehicle group” value with male Swiss Webster mice [3] is reported as “lack of significant antinociceptive effect”. Besides, the Ki at DOR [4] stood at 33 ± 3.58 nM; on MOR [6] (read-out: radioligand binding affinity (Ki, nM) MOR) it was 0.28 ± 0.02 nM; at KOR [7] (read-out: radioligand binding affinity (Ki, nM) KOR), 0.61 ± 0.07 nM. On MOR [5], the “[35S]-GTPγS functional activity MOR Emax (%)” value is recorded as “above 40%”. The “radioligand binding affinity (Ki, nM) MOR” value on MOR [6] is “subnanomolar”. Further, the “radioligand binding affinity (Ki, nM) KOR” value at KOR [7] is listed as “subnanomolar”.

Consider `CN(C(=O)/C=C/c1ccoc1)[C@@H]1CC[C@@]2(O)[C@H]3Cc4ccc(O)c5c4[C@@]2(CCN3CC2CC2)[C@H]1O5.Cl` [NLF, Nalfurafine, reference compound], for which, in the data set with male Swiss Webster mice [8], the “antinociceptive effects significant until (time postinjection)” value is reported as 1 h and the “return to the baseline postinjection” value was 9 h. Moreover, on DOR [9], the Ki is 116 ± 20.9 nM. The “reinforcing effect (number of infusions earned versus saline)” value in data set [10] is listed as “did not function as a reinforcer”. In the data set on male Swiss Webster mice [11] (10 mg/kg nor-BNI s.c. 24 h prior to 0.1 mg/kg test compound s.c. (23 also 0.05 mg/kg)), the “antagonism of antinociceptive effects by nor-BNI (KOR antagonist) pretreatment” value is “significantly lower”. Moreover, the “antagonism of antinociceptive effects by β-FNA (MOR antagonist) pretreatment” value in the data set on male Swiss Webster mice [11] (10 mg/kg β-FNA s.c. 24 h prior to 0.1 mg/kg test compound s.c.) is listed as “not antagonized by β-FNA”. For the same compound, the “antagonism of antinociceptive effects by NTI (DOR antagonist) pretreatment” value in the data set with male Swiss Webster mice [11] (15 mg/kg NTI s.c. 30 min prior to 0.1 mg/kg test compound s.c. (23 also 0.05 mg/kg)) is given as “significantly lower”. Also, the “antagonism of antinociceptive effects by NTI and nor-BNI pretreatment together” value in the data set on male Swiss Webster mice [11] (nor-BNI 10 mg/kg + NTI 15 mg/kg s.c. prior to test compound) was “did not result in a more drastic decrease than either antagonist alone”. Also, in the data set on male Swiss Webster mice [12], the locomotor activity entry is listed as “slight dose-dependent trends for decreased locomotion”. For the same compound, the “average speed by time versus vehicle” value with male Swiss Webster mice [12] (Figure 6F–H) is listed as “significantly different from vehicle”. Besides, the “potency ED50 [95% CI] mg/kg” value in the data set on male Swiss Webster mice [13] was 0.046 [0.016–0.126] mg/kg.

As to `CN(C(=O)/C=C/c1ccoc1)[C@H]1CC[C@@]2(O)[C@H]3Cc4ccc(O)c5c4[C@@]2(CCN3CC2CC2)[C@H]1O5.Cl` [NMF], in the data set with male Swiss Webster mice [14], the “duration of antinociceptive effects” value is 1 h. At DOR [9], the Ki was 0.64 ± 0.11 nM. Further, in data set [15], the “half-life in rat liver S9 fraction” value is given as 10 min. Further, the “potency ED50 [95% CI] mg/kg” value in the data set with male Swiss Webster mice [13] is 0.037 [0.014–0.096] mg/kg. On hERG, the IC50 was 6700 nM.

`C=CCN1CC[C@]23c4c5ccc(O)c4O[C@H]2C(=O)CC[C@@]3(O)[C@H]1C5` [naloxone, Naloxone HCl]: in the data set with male Swiss Webster mice [16], the “blockade of morphine antinociception” value is on record as “sufficiently antagonized morphine antinociception”.
